Patent US6777564B2, “Anthraquinone compound” (Industrial Technology Research Institute, priority 2001, dated 2004)
Converted amounts (≈) assume the structure as drawn.

Legend:
HIV-1 RT(p66) = biological target: T1, HIV-1 RT(p66) (Human immunodeficiency virus type 1 group M subtype B, UniProt P04585); experiment: anti-virus activity test, HIV-1 RT(p66) inhibition; format: biochemical; conditions: for activity inhibition (%) / inhibition at 200 µg/mL: at 200 μg/ml; for activity inhibition (%) / IC50 / inhibition at 200 µg/mL: HIV-1 RT(p66); for activity inhibition / anti-virus ability (in words): at the concentration of 200 μg/ml; for IC50: read-out: IC50 (μg/ml) (converted)
T1 construct: 1-10 at 200 μg/ml to HIV-1 RT(p66)

[1] = system: LNCaP: human prostate cell; experiment: anti-cancer activity test (cytotoxicity), LNCaP; format: cell-based; conditions: LNCaP cells; for IC50: Homo sapiens
U373: human glioma cell = experiment: anti-cancer activity test (cytotoxicity), U373; format: cell-based; conditions: U373 cells; for IC50: Homo sapiens, U373 MG
[2] = system: ZR-75-1: human breast cell; experiment: anti-cancer activity test (cytotoxicity), ZR-75-1; format: cell-based; conditions: ZR-75-1 cells; for IC50: Homo sapiens
BC-1: human breast cell = experiment: anti-cancer activity test (cytotoxicity), BC 1; format: cell-based; conditions: BC 1 cells; for IC50: Homo sapiens, BC1
[3] = system: KB: human oral epidormaid Carcinama cell; experiment: anti-cancer activity test (cytotoxicity), KB; format: cell-based; conditions: KB cells; for IC50: Homo sapiens
Procedure: (§1) The compounds were further screened on 60 human cancer cell lines by Developmental Therapeutics Program Human Tumor Cell Line Screen set up by the National Cancer Institute of the U. S. A. The screening procedures are described briefly hereinafter. Cell suspensions that were diluted according to the particular cell type and the expected target cell density (5000-40,000 cells per well based on cell growth characteristics) were added by pipet (100 μL) into 96-well microtiterplates. Inoculates were allowed a preincubation period of 24 hours at 37° C. for stabilization. Dilutions at twice the intended test concentration were added in 100 μL aliquots to the microtiter plate wells at time zero. Usually, test compounds were evaluated at five 10-fold dilutions. In routine testing, the highest well concentration was 10^−4 M, but for the standard agents the highest well concentration used depended on the agent. Incubations lasted for 48 hours in 5% CO2 atmosphere and 100% humidity. The cells were assayed by using the sulforhodamine B assay. A plate reader was used to read the optical densities, and a microcomputer processed the optical densities into the special concentration parameters. The results of these tests with representative compounds of the present invention appear in Table 1 and 2

[4] = system: Mel2: human melanoma cell; experiment: anti-cancer activity test (cytotoxicity), Mel2; format: cell-based; conditions: Mel2 cells; for IC50: Homo sapiens
[5] = system: A431: human squamous cell; experiment: anti-cancer activity test (cytotoxicity), A431; format: cell-based; conditions: A431 cells; for IC50: Homo sapiens, A-431
[6] = system: KB-V: drug resisteant KB cell; experiment: anti-cancer activity test (cytotoxicity), KB-V; format: cell-based, human; conditions: KB-V cells; for IC50: Homo sapiens
[7] = system: HT-1088: human fibrosarcoma cell; experiment: anti-cancer activity test (cytotoxicity), HT; format: cell-based; conditions: HT cells; for IC50: Homo sapiens
[8] = system: P-388: mouse lymphaid Macrophage cell; experiment: anti-cancer activity test (cytotoxicity), P-388; format: cell-based; conditions: P-388 cells; for IC50: Mus musculus, P388
Col2: human colon cell = experiment: anti-cancer activity test (cytotoxicity), Col2; format: cell-based; conditions: Col2 cells; for IC50: Homo sapiens
Lu1: human lung cell = experiment: anti-cancer activity test (cytotoxicity), Lu1; format: cell-based; conditions: Lu1 cells; for IC50: Homo sapiens
human cancer cell lines = experiment: anti-cancer activity test, overall over the cell line panel; format: cell-based; conditions: summary of Table 1
Procedure: as §1

With “4-amino-1-benzyl Carbamidoacetamidoanthraquinone [Example 5]” as the compound, how does the “activity inhibition (%)” value (HIV-1 RT(p66)) read?
Its value is 23.0%.

What about the “activity inhibition / anti-virus ability (in words)” value (HIV-1 RT(p66)) of the same compound?
Its value is “anti-virus ability but not so strong as the others”.

And the “IC50 LNCaP” value [1]?
Its value is >20 µg/mL.

What about the “IC50 U373” value (U373: human glioma cell) of the same compound?
Its value is >20 µg/mL.

And the “IC50 ZR-75-1” value [2]?
The value was >20 µg/mL.

What about the “IC50 BC 1” value (BC-1: human breast cell) of the same compound?
The value was >20 µg/mL.

What about the “IC50 KB” value [3] of the same compound?
The value was >20 µg/mL.

And the “IC50 Mel2” value [4]?
The value was >20 µg/mL.

What about the “IC50 A431” value [5] of the same compound?
The value was >20 µg/mL.

And the “IC50 KB-V (+VLB)” value ([6]; with vinblastine (+VLB))?
Its value is 2.9 µg/mL.

And the “IC50 KB-V (−VLB)” value ([6]; without vinblastine (−VLB))?
Its value is >20 µg/mL.

What about the “IC50 HT” value [7] of the same compound?
Its value is >20 µg/mL.

What about the “IC50 P-388” value [8] of the same compound?
Its value is >5 µg/mL.

And the “IC50 Col2” value (Col2: human colon cell)?
Its value is >20 µg/mL.

What about the “IC50 Lu1” value (Lu1: human lung cell) of the same compound?
The value was >20 µg/mL.

`N=C(N)NCC(=O)Nc1ccc2c(c1N)C(=O)c1ccccc1C2=O` [Example 6, 1-amino-2-guanido acetamidoanthraquinone] was tested. Which IC50 (HIV-1 RT(p66)) did it give?
Its IC50 is 119 µM.

What about the inhibition at 200 µg/mL (HIV-1 RT(p66)) of the same compound?
Its inhibition at 200 µg/mL is 99.7%.

And the “activity inhibition / anti-virus ability (in words)” value (HIV-1 RT(p66))?
The value was “excellent effect on activity inhibition”.

What about the IC50 [1] of the same compound?
Its IC50 is > 20 µg/mL.

And the “cytotoxic activity to cancer cell lines (in words)” value (from here on “cytotoxic activity”) (human cancer cell lines)?
The value was “more effective to most cancer cell lines”.

What about the IC50 (U373: human glioma cell) of the same compound?
The IC50 was 2 µg/mL (≈ 5.93 µM).

And the IC50 [2]?
Its IC50 is 6.9 µg/mL (≈ 20.5 µM).

And the IC50 (BC-1: human breast cell)?
Its IC50 is 7.8 µg/mL (≈ 23.1 µM).

What about the IC50 [3] of the same compound?
The IC50 was 5.9 µg/mL (≈ 17.5 µM).

What about the IC50 [4] of the same compound?
Its IC50 is > 20 µg/mL.

What about the IC50 [5] of the same compound?
Its IC50 is 0.9 µg/mL (≈ 2.67 µM).

And the IC50 ([6]; with vinblastine (+VLB))?
Its IC50 is 7.9 µg/mL (≈ 23.4 µM).

And the IC50 ([6]; without vinblastine (−VLB))?
The IC50 was > 20 µg/mL.

And the IC50 [7]?
Its IC50 is 4.5 µg/mL (≈ 13.3 µM).

What about the IC50 [8] of the same compound?
The IC50 was > 5 µg/mL.

What about the IC50 (Col2: human colon cell) of the same compound?
The IC50 was > 20 µg/mL.

What about the IC50 (Lu1: human lung cell) of the same compound?
The IC50 was > 20 µg/mL.

Which inhibition at 200 µg/mL (HIV-1 RT(p66)) does the source give for `N=C(N)NCC(=O)Nc1ccc2c(c1)C(=O)c1ccc(NC(=O)CNC(=N)N)cc1C2=O` [Example 8, 2,6-di(guanidinoacetamido)anthraquinone] here?
The inhibition at 200 µg/mL was 29.3%.

And the IC50 [1]?
The IC50 was 7.2 µg/mL (≈ 16.5 µM).

And the “cytotoxic activity” value (human cancer cell lines)?
Its value is “more effective to most cancer cell lines”.

What about the IC50 (U373: human glioma cell) of the same compound?
Its IC50 is 8.6 µg/mL (≈ 19.7 µM).

What about the IC50 [2] of the same compound?
Its IC50 is 7 µg/mL (≈ 16 µM).

And the IC50 (BC-1: human breast cell)?
Its IC50 is 5 µg/mL (≈ 11.5 µM).

What about the IC50 [3] of the same compound?
The IC50 was 1.4 µg/mL (≈ 3.21 µM).

What about the IC50 [4] of the same compound?
The IC50 was 12.7 µg/mL (≈ 29.1 µM).

What about the IC50 [5] of the same compound?
Its IC50 is 5.8 µg/mL (≈ 13.3 µM).

What about the IC50 ([6]; with vinblastine (+VLB)) of the same compound?
Its IC50 is > 20 µg/mL.

What about the IC50 ([6]; without vinblastine (−VLB)) of the same compound?
Its IC50 is > 20 µg/mL.

What about the IC50 [7] of the same compound?
The IC50 was 6 µg/mL (≈ 13.7 µM).

And the IC50 [8]?
The IC50 was > 5 µg/mL.

What about the IC50 (Col2: human colon cell) of the same compound?
The IC50 was 3.3 µg/mL (≈ 7.56 µM).

What about the IC50 (Lu1: human lung cell) of the same compound?
The IC50 was 12.2 µg/mL (≈ 28 µM).

With “2-Benzyl Carbamidoacetamidoanthraquinone [Example 9]” as the compound, how does the “activity inhibition (%)” value (HIV-1 RT(p66)) read?
The value was 53.4%.

What about the “activity inhibition / anti-virus ability (in words)” value (HIV-1 RT(p66)) of the same compound?
Its value is “anti-virus ability but not so strong as the others”.

What about the “IC50 LNCaP” value [1] of the same compound?
Its value is >20 µg/mL.

And the “IC50 U373” value (U373: human glioma cell)?
The value was 4.7 µg/mL.

What about the “IC50 ZR-75-1” value [2] of the same compound?
Its value is 6.4 µg/mL.

And the “IC50 BC 1” value (BC-1: human breast cell)?
Its value is 6.4 µg/mL.

And the “IC50 KB” value [3]?
Its value is 19.2 µg/mL.

And the “IC50 Mel2” value [4]?
Its value is 15.1 µg/mL.

And the “IC50 A431” value [5]?
Its value is 1.7 µg/mL.

And the “IC50 KB-V (+VLB)” value ([6]; with vinblastine (+VLB))?
The value was 1.4 µg/mL.

And the “IC50 KB-V (−VLB)” value ([6]; without vinblastine (−VLB))?
The value was >20 µg/mL.

What about the “IC50 HT” value [7] of the same compound?
The value was 8.3 µg/mL.

What about the “IC50 P-388” value [8] of the same compound?
The value was >5 µg/mL.

What about the “IC50 Col2” value (Col2: human colon cell) of the same compound?
Its value is 9.6 µg/mL.

What about the “IC50 Lu1” value (Lu1: human lung cell) of the same compound?
The value was 9.6 µg/mL.

`N=C(N)NCC(=O)Nc1ccc(N)c2c1C(=O)c1ccccc1C2=O` [Example 2, 4-amino-1-guanido acetamidoanthraquinone] was tested. Which IC50 (HIV-1 RT(p66)) did it give?
The IC50 was 25.8 µM.

And the inhibition at 200 µg/mL (HIV-1 RT(p66))?
The inhibition at 200 µg/mL was 99.5%.

And the “activity inhibition / anti-virus ability (in words)” value (HIV-1 RT(p66))?
Its value is “excellent effect on activity inhibition”.

And the IC50 [1]?
Its IC50 is 4.1 µg/mL (≈ 12.2 µM).

And the “cytotoxic activity” value (human cancer cell lines)?
The value was “more effective to most cancer cell lines”.

And the IC50 (U373: human glioma cell)?
Its IC50 is 0.6 µg/mL (≈ 1.78 µM).

And the IC50 [2]?
Its IC50 is 3.4 µg/mL (≈ 10.1 µM).

And the IC50 (BC-1: human breast cell)?
Its IC50 is 1.6 µg/mL (≈ 4.74 µM).

And the IC50 [3]?
The IC50 was 1.2 µg/mL (≈ 3.56 µM).

And the IC50 [4]?
Its IC50 is 4.4 µg/mL (≈ 13 µM).

And the IC50 [5]?
The IC50 was 0.4 µg/mL (≈ 1.19 µM).

What about the IC50 ([6]; with vinblastine (+VLB)) of the same compound?
Its IC50 is 16 µg/mL (≈ 47.4 µM).

What about the IC50 ([6]; without vinblastine (−VLB)) of the same compound?
Its IC50 is > 20 µg/mL.

And the IC50 [7]?
The IC50 was 2 µg/mL (≈ 5.93 µM).

And the IC50 [8]?
Its IC50 is > 5 µg/mL.

And the IC50 (Col2: human colon cell)?
The IC50 was 4.2 µg/mL (≈ 12.5 µM).

What about the IC50 (Lu1: human lung cell) of the same compound?
The IC50 was 3.1 µg/mL (≈ 9.19 µM).
